Measurements as given in paper PMC3608651, “A Broad Profile of Co-Dominant Epitopes Shapes the Peripheral Mycobacterium tuberculosis Specific CD8+ T-Cell Immune Response in South African Patients with Active Tuberculosis” (PLoS ONE, 2013).
Read-outs that look alike come from different tables or passages of the source.

How the values were obtained:
Type in all cases: binding
HLA-C*07:01 [1] = biological target: T1, HLA-C*07:01 (Homo sapiens, UniProt P10321, K90N/S123Y); conditions: duplicated experiments, positive binder >40%
HLA-C*07:01 [2] = biological target: T1, HLA-C*07:01; assay: affinity assay (ED50)
HLA-A*68:01 [3] = biological target: T2, HLA-A*68:01 (Homo sapiens, UniProt P04439, A269V/D185E/E176V/E277Q/E87N/F33Y/G231S/I121M/I166T/I218V/L180W/L300P/L318F/N151K/P208A/P217A/Q86R/R169H/T345S); conditions: duplicated experiments, positive binder >40%
HLA-B*58:01 [4] = biological target: T3, HLA-B*58:01 (Homo sapiens, UniProt P01889, A329T/C349S/D201E/D98Y/E176V/E187L/E204Q/E69T/G107R/I218V/I90N/K202T/L105A/L119I/N104I/N87E/Q89R/Q94S/R106L/R155S/R180L/R86G/S101N/S121R/S35A/S48A/T118I/V127L/V306I/V36M/Y140S/Y91M); conditions: duplicated experiments, positive binder >40%
HLA-C*07:01 [5] = biological target: T1, HLA-C*07:01; assay: off-rate assay (t1/2); conditions: time points 0-8 h
HLA-A*24:02 [6] = biological target: T4, HLA-A*24:02 (Homo sapiens, UniProt P04439, D101N/D140Y/D185E/E176V/E190D/F33S/G103R/G107R/I119L/I121M/I306V/K335N/L105A/L180Q/L300P/N151K/N90K/Q86E/Q94H/R106L/R138H/R89G/T104I/T345S/V100E/W191G/Y123F); conditions: duplicated experiments, positive binder >40%
HLA-A*30:02 [7] = biological target: T5, HLA-A*30:02 (Homo sapiens, UniProt P04439, D101N/D140H/D185E/E176R/F33S/G80R/H175R/K168Q/Q94H/R138E/R41S/V100E)
HLA-A*02:01 [8] = biological target: T6, HLA-A*02:01 (Homo sapiens, UniProt P04439, D140Y/D185E/D98H/E176V/E277Q/G131W/G231S/I119V/I121R/I166T/I218V/L300P/L318F/N151K/N90K/P208A/P217A/Q86G/Q94H/R138H/R169H/T345S); conditions: plate-bound monomer 0.5 µg/ml, duplicated experiments, positive binder >40%
HLA-B*07:02 = HLA-B*07:02 (Homo sapiens, UniProt P01889); conditions: percent relative the binding of positive control peptide […]; duplicated experiments; positive binder >40%
HLA-A*30:02 [9] = biological target: T5, HLA-A*30:02; conditions: time points 0-8 h
HLA-A*30:02 [10] = biological target: T5, HLA-A*30:02; conditions: duplicated experiments, positive binder >40%
HLA-A*30:01 = HLA-A*30:01 (Homo sapiens, UniProt P04439, D140H/D185E/E176W/F33S/G80R/H175R/K168Q/R138E/R41S); conditions: duplicated experiments, positive binder >40%
HLA-A*68:01 [11] = biological target: T2, HLA-A*68:01
HLA-A*68:01 [12] = biological target: T2, HLA-A*68:01; conditions: time points 0-8 h
HLA-B*58:01 [13] = biological target: T3, HLA-B*58:01; conditions: time points 0-8 h
HLA-B*58:01 [14] = biological target: T3, HLA-B*58:01
HLA-A*02:01 [15] = biological target: T6, HLA-A*02:01; conditions: time points 0-8 h; time when 50% of peptide has dissociated
HLA-A*24:02 [16] = biological target: T4, HLA-A*24:02; conditions: time points 0-8 h
HLA-A*02:01 [17] = biological target: T6, HLA-A*02:01; conditions: […]; peptide quantity for 50% binding saturation
HLA-A*24:02 [18] = biological target: T4, HLA-A*24:02
[19] = percent relative the binding of positive control peptide […]
[20] = peptide titrated 10−4 to 10−9 M

Substance | Bind C*07:01 (HLA-C*07:01 [1]; [19]) [%] | Aff C*07:01 (ED50) (HLA-C*07:01 [2]) | Bind A*68:01 (HLA-A*68:01 [3]; [19]) [%] | Bind B*58:01 (HLA-B*58:01 [4]; [19]) [%] | O-rate C*07:01 (t1/2) (HLA-C*07:01 [5]) [h] | Bind A*24:02 (HLA-A*24:02 [6]; [19]) [%] | Aff A*30:02 (ED50) (HLA-A*30:02 [7]) | Bind A*02:01 (HLA-A*02:01 [8]; [19]) [%] | Bind B*07:02 (HLA-B*07:02) [%] | O-rate A*30:02 (t1/2) (HLA-A*30:02 [9]) [h] | Bind A*30:02 (HLA-A*30:02 [10]; [19]) [%] | Bind A*30:01 (HLA-A*30:01; [19]) [%] | other results
AMEDLVRAY [Rv0288_61–69] | 46 | 5e-06 M | 0 | 14 | 0.1 | – | – | – | – | – | – | – | –
ANNTRLWVY | 113 | 5e-09 M | 0 | 19 | 0.7 | 32 | 2e-08 M | 5 | 9 | 1.9 | 195 | 19 | –
FVRSSNLKF | 76 | 2E -08 M | 45 | 12 | 1.4 | 81 | 8E -06 M | 15 | 114 | 1.9 | 94 | 0 | Aff A*68:01 (ED50) (HLA-A*68:01 [11]): 8e-08 M; O-rate A*68:01 (t1/2) (HLA-A*68:01 [12]): 0.1 h
I NT P AF E WY | 41 | 6E -07 M | 9 | 54 | 1 | 20 | 7E -07 M | 0 | 2 | 1.9 | 132 | 10 | O-rate B*58:01 (t1/2) (HLA-B*58:01 [13]): 0.5 h; Aff B*58:01 (ED50) (HLA-B*58:01 [14]): 5e-07 M
LAAAWGGSG [Rv3875_39-47] | – | – | – | – | 1.0 | – | – | – | 4 | 2.1 | – | – | Bind A*24:02 (HLA-A*24:02 [6]; percent relative the binding of positive control peptide RYLKDQQLL): 4%; Aff A*30:02 (ED50) (HLA-A*30:02 [7]; [20]): 7e-09 M; Bind C*07:01 (HLA-C*07:01 [1]; percent relative the binding of positive control peptide KYFDEHYEY): 120%; Aff C*07:01 (ED50) (HLA-C*07:01 [2]; [20]): 4e-08 M; Bind A*02:01 (HLA-A*02:01 [8]; percent relative the binding of positive control peptide FLPSDFFPSV): 8%; Bind A*68:01 (HLA-A*68:01 [3]; percent relative the binding of positive control peptide KTGGPIYKR): 10%; Bind B*58:01 (HLA-B*58:01 [4]; percent relative the binding of positive control peptide IAMESIVIW): 7%; Bind A*30:02 (HLA-A*30:02 [10]; percent relative the binding of positive control peptide KIQNFRVYY): 114%; Bind A*30:01 (HLA-A*30:01; percent relative the binding of positive control peptide KTKDIVNGL): 14%
LAAYHPQQF | 84 | 1E -07 M | 37 | 13 | 0.4 | 52 | 3e-07 M | 39 | 74 | 1.1 | 66 | 0 | –
NNSPAVYLL | 70 | 2e-07 M | 28 | 0 | 0.6 | 49 | – | 16 | 0 | – | 0 | 0 | –
NTPAFEWYY | 48 | 8e-09 M | 69 | 36 | 0.9 | 0 | 2e-08 M | 0 | 0 | 1.5 | 99 | 6 | Aff A*68:01 (ED50) (HLA-A*68:01 [11]): 1E -07 M; O-rate A*68:01 (t1/2) (HLA-A*68:01 [12]): 0.2 h
QT YKWETFL | 15 | – | 46 | 40 | – | 110 | 2E -08 M | 60 | 0 | 1 | 41 | 0 | O-rate B*58:01 (t1/2) (HLA-B*58:01 [13]): 1.5 h; Aff A*68:01 (ED50) (HLA-A*68:01 [11]): 2E -07 M; O-rate A*02:01 (t1/2) (HLA-A*02:01 [15]): 2.6 h; O-rate A*24:02 (t1/2) (HLA-A*24:02 [16]): 2 h; Aff A*02:01 (ED50) (HLA-A*02:01 [17]): 3E -07 M; Aff B*58:01 (ED50) (HLA-B*58:01 [14]): 2E -08 M; Aff A*24:02 (ED50) (HLA-A*24:02 [18]): 20 nM; O-rate A*68:01 (t1/2) (HLA-A*68:01 [12]): 0.7 h
RAVKPT GSA | 82 | 2E -07 M | 10 | 72 | 1.4 | 0 | – | 19 | 84 | – | 18 | 4 | O-rate B*58:01 (t1/2) (HLA-B*58:01 [13]): 0.3 h; Aff B*58:01 (ED50) (HLA-B*58:01 [14]): 5E -07 M
VRAYHAMSS [Rv0288_66–74] | 79 | 1e-06 M | 29 | 10 | 0.2 | – | – | – | – | – | – | – | –
YNYPAMLGH [Rv0288_6–14] | 48 | 7e-06 M | 30 | 0 | 0.3 | – | – | – | – | – | – | – | –
